The record followed here is patent US20160326142A1, “PYRAZOLE CARBOXAMIDE COMPOUNDS, COMPOSITIONS AND METHODS OF USE” (Genentech, Inc., priority 2012, published 2016).

Structures are written as SMILES.

The target in this experiment is T1, ITK (Homo sapiens, UniProt Q08881).
T1 construct: purchased Invitrogen PV3875
T1 sequence (Q08881 1-620): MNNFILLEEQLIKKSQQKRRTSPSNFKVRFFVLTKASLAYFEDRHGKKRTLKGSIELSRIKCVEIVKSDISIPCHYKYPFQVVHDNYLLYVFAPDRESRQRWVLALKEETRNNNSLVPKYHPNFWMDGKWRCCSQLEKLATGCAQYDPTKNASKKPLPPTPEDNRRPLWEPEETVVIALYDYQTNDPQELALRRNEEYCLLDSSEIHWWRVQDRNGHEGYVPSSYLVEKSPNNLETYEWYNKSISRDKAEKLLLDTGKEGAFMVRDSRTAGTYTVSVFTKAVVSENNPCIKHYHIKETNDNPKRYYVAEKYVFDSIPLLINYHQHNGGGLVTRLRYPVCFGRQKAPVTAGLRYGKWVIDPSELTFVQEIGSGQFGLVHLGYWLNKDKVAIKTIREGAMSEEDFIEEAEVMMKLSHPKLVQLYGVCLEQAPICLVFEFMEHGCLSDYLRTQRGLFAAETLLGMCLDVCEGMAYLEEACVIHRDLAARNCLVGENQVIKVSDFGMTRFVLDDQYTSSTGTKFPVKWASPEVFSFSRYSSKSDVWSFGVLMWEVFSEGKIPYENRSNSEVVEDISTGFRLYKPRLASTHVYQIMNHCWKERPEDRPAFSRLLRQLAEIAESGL
Briefly: ITK enzyme assay (Caliper or LCMS peptide phosphorylation). The format is biochemical. The note with it: purified ITK (Invitrogen PV3875), 20 μM ATP, Ki by Morrison's quadratic equation. A digest of the protocol:
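Ki values come from Morrison quadratic fits of activity versus inhibitor concentration, adjusted for ATP-competitive inhibition against ATP/Km,app. Substrate and phosphopeptide from purified ITK reactions were resolved either microfluidically (Caliper, EDTA stop) or by LC-MS MRM (TCA stop).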
Regarding `N#Cc1cccc(Cn2cc(NC(=O)c3n[nH]c4c3CCC4)cn2)c1` [Example 20, N-(1-(3-cyanobenzyl)-1H-pyrazol-4-yl)-1,4,5,6-tetrahydrocyclopenta[c]pyrazole-3-carboxamide], the affinity, expressed as Ki, was 89 nM.

Regarding `CC1(C)Cc2[nH]nc(C(=O)Nc3cnn(Cc4ccccc4)c3)c2C1` [Example 21, N-(1-benzyl-1H-pyrazol-4-yl)-5,5-dimethyl-1,4,5,6-tetrahydrocyclopenta[c]pyrazole-3-carb oxamide], the inhibition constant Ki (as a rule, the dissociation constant of the complex between target and ligand, obtained from inhibition or displacement) turned out to be 7.4 nM.

As for `O=C(Nc1cnn(Cc2ccccc2)c1)c1n[nH]c2c1C1CC(C2)C1` [Example 31, N-(1-benzyl-1H-pyrazol-4-yl)-4,5,6,7-tetrahydro-1H-4,6-methanoindazole-3-carboxamide], the affinity corresponds to a Ki of 260 nM.

Molecule `O=C(Nc1cnn(Cc2ccccc2)c1)c1n[nH]c2c1CC1CC2C1` [Example 32, N-(1-benzyl-1H-pyrazol-4-yl)-4,5,6,7-tetrahydro-1H-5,7-methanoindazole-3-carboxamide] gave a Ki of 38 nM.

`CC1(O)CCc2c(C(=O)Nc3cnn(Cc4ccccc4)c3)n[nH]c2C1` (centres unmarked) [Example 51b, N-(1-benzyl-1H-pyrazol-4-yl)-6-hydroxy-6-methyl-4,5,6,7-tetrahydro-1H-indazole-3-carboxamide]: the Ki was 860 nM. Against the preceding molecule, the Ki is about 23-fold higher.

Consider `CN(C)CCC(c1ccccc1)n1cc(NC(=O)c2n[nH]c3c2CCC2(CCCO2)C3)cn1` (centres unmarked) [Example 59, N-(1-(3-(dimethylamino)-1-phenylpropyl)-1H-pyrazol-4-yl)-1′,4,4′,5,5′,7′-hexahydro-3H-spiro[furan-2,6′-indazole]-3′-carboxamide], for which the Ki was determined as 40 nM. This Ki is about 22-fold lower than that of the molecule before.

In the case of `CC12Cc3[nH]nc(C(=O)Nc4cnn(C(CCS(C)(=O)=O)c5ccccc5)c4)c3CC1C2` (centres unmarked) [Example 69a, 5a-methyl-N-(1-(3-(methylsulfonyl)-1-phenylpropyl)-1H-pyrazol-4-yl)-1,4,4a,5,5a,6-hexahydrocyclopropa[f]indazole-3-carboxamide], the Ki is 2 nM.

`CC1(C)Cc2[nH]nc(C(=O)Nc3cnn(Cc4ccccc4)c3)c2CCO1` [Example 71a, N-(1-benzyl-1H-pyrazol-4-yl)-7,7-dimethyl-4,5,7,8-tetrahydro-1H-oxepino[4,5-c]pyrazole-3-carboxamide]: the inhibitory constant (Ki) turned out to be 4000 nM.

Take `CC1(C)Cc2c(C(=O)Nc3cnn(Cc4ccccc4)c3)n[nH]c2CCO1` [Example 71b, N-(1-benzyl-1H-pyrazol-4-yl)-5,5-dimethyl-4,5,7,8-tetrahydro-1H-oxepino[4,5-c]pyrazole-3-carboxamide]: the inhibition constant Ki is 790 nM.

`CN(C)CCn1cc(NC(=O)c2n[nH]c3c2CCC(C)(C)C3)cn1` [Example 72, N-(1-(2-(dimethylamino)ethyl)-1H-pyrazol-4-yl)-6,6-dimethyl-4,5,6,7-tetrahydro-1H-indazole-3-carboxamide] yielded a Ki of 78 nM.

Consider `CC1(C)CCc2c(C(=O)Nc3cnn(C(c4ccccc4)C4CN(CCF)C4)c3)n[nH]c2C1` (centres unmarked) [Example 75b, N-(1-((1-(2-fluoroethyl)azetidin-3-yl)(phenyl)methyl)-1H-pyrazol-4-yl)-6,6-dimethyl-4,5,6,7-tetrahydro-1H-indazole-3-carboxamide], for which the Ki worked out at 0.3 nM.

In the case of `O=C(Nc1cnn(Cc2ccccc2)c1)c1n[nH]c2c1CC1(COC1)C2` [Example 82, N-(1-benzyl-1H-pyrazol-4-yl)-4,6-dihydro-1H-spiro[cyclopenta[c]pyrazole-5,3′-oxetane]-3-c arboxamide], the Ki is 61 nM.

In the case of `CC1(C)CCc2c(C(=O)Nc3cnn(Cc4ccnc(N)c4)c3)n[nH]c2C1` [Example 111, N-(1-((2-aminopyridin-4-yl)methyl)-1H-pyrazol-4-yl)-6,6-dimethyl-4,5,6,7-tetrahydro-1H-indazole-3-carboxamide], the affinity corresponds to a Ki of 8 nM.

As to `CC1(C)CCc2c(C(=O)Nc3cnn(Cc4cccnc4N)c3)n[nH]c2C1` [Example 112, N-(1-((2-aminopyridin-3-yl)methyl)-1H-pyrazol-4-yl)-6,6-dimethyl-4,5,6,7-tetrahydro-1H-indazole-3-carboxamide], the inhibition constant (Ki) stood at 6 nM.

The molecule `O=C(Nc1cnn(Cc2ccccc2)c1)c1n[nH]c2c1CCC1(CSC1)C2` [Example 118, N-(1-benzyl-1H-pyrazol-4-yl)-1,4,5,7-tetrahydrospiro[indazole-6,3′-thietane]-3-carboxamide] had a Ki of 34 nM.

In turn, `CN(CCC(c1ccccc1)n1cc(NC(=O)c2n[nH]c3c2CCC(C)(C)C3)cn1)S(C)(=O)=O` (centres unmarked) [Example 122, 6,6-dimethyl-N-(1-(3-(N-methylmethylsulfonamido)-1-phenylpropyl)-1H-pyrazol-4-yl)-4,5,6,7-tetrahydro-1H-indazole-3-carboxamide] registered a Ki of 4 nM. Against the preceding molecule, the Ki is about 8.5-fold lower.

`CN1CCC2(CCc3c(C(=O)Nc4cnn(Cc5ccccc5)c4)n[nH]c3C2)C1=O` (centres unmarked) [Example 123b, N-(1-benzyl-1H-pyrazol-4-yl)-1′-methyl-2′-oxo-1,4,5,7-tetrahydrospiro[indazole-6,3′-pyrrolidine]-3-carboxamide] returned an inhibition constant Ki of 4000 nM. Compared with the last molecule, the Ki is about 1000-fold higher.

Molecule `O=C(Nc1cnn(Cc2ccccc2)c1)c1n[nH]c2c1CCCCC2` [Example 124, N-(1-benzyl-1H-pyrazol-4-yl)-1,4,5,6,7,8-hexahydrocyclohepta[c]pyrazole-3-carboxamide] had an inhibition constant Ki of 140 nM.

`CC1(C)CCc2c(C(=O)Nc3cnn(C(c4ccccc4)C4CS(=O)(=O)CCN4)c3)n[nH]c2C1` (centres unmarked) [Example 128a, N-(1-((1,1-dioxidothiomorpholin-3-yl)(phenyl)methyl)-1H-pyrazol-4-yl)-6,6-dimethyl-4,5,6,7-tetrahydro-1H-indazole-3-carboxamide] showed a Ki of 42 nM.

The molecule `CC12Cc3[nH]nc(C(=O)Nc4cnn(C(c5ccccc5)C5CCS(=O)(=O)CC5)c4)c3CC1C2(F)F` (centres unmarked) [Example 141, N-(1-((1,1-dioxidotetrahydro-2H-thiopyran-4-yl)(phenyl)methyl)-1H-pyrazol-4-yl)-5,5-difluoro-5a-methyl-1,4,4a,5,5a,6-hexahydrocyclopropa[f]indazole-3-carboxamide] displayed a Ki of under 0.1 nM.
